We go through 65 compounds from PubChem BioAssay AID463222 (The Scripps Research Institute Molecular Screening Center, 2010).

The term inhibition denotes the drop in the measured response relative to a control, in per cent.

Calls of active or inactive are those of the source. No rule for the calls is given here.

The target of this assay is Serine/threonine-protein phosphatase 5 (Homo sapiens) (UniProt P53041). Description: PP5 phosphatase inhibitors, OMFP substrate, late-stage follow-up, biochemical, fluorescence, single concentration (AID 463222). To be noted: PP5 OMFP dephosphorylation, at 6.7 µM, stronger effect = higher value.
Sequence of Serine/threonine-protein phosphatase 5 (Homo sapiens) (P53041 whole entry, looked up): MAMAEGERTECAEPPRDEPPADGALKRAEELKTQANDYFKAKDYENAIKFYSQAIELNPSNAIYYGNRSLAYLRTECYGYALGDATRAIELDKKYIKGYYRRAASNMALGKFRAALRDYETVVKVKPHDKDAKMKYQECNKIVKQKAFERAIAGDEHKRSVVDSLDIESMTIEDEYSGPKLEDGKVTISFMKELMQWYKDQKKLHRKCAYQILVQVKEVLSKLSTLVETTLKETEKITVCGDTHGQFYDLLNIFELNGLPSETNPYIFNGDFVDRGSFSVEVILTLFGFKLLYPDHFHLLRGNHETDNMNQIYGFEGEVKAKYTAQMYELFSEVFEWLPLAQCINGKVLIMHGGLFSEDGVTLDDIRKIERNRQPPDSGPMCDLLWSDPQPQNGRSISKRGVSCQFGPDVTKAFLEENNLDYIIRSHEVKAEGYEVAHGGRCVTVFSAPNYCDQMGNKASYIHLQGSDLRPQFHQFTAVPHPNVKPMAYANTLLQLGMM
For the compound `O=C(NC1(O)C(=O)c2ccccc2C1=O)c1ccc(C(F)(F)F)cc1`, the inhibition is 11.6% (inactive).
The figure for `COc1ccc(NC(=O)C2C3CCC(O3)C2C(=O)O)c(OC)c1` (stereo not given) is 51.1%; for `Cc1nnc(NC(=O)C2C3C=CC(O3)C2C(=O)O)s1` (stereo not given) it is 22.3%; for `CCn1c2ccccc2c2cc(NC(=O)COC(=O)c3ccc(NC(=O)CC#N)cc3)ccc21` it is -3.03% (inactive).
As for `O=C(NC1(O)C(=O)c2ccccc2C1=O)c1c(Cl)cccc1Cl`, the inhibition is 8.39% (inactive).
The figure for `Cc1ccc(-n2nc(C(=O)O)cc2-c2ccc(Cl)cc2)cc1` is -5.42% (inactive).
The figure for `CCOC(=O)c1nn(-c2ccc(C)cc2)c(=O)c2c(N)scc12` is -0.12% (inactive); for `COc1cnc(-c2ccccn2)nc1Sc1cccc(Cl)c1` it is 4.14% (inactive).
The figure for `CCCCn1c(NC(=O)c2ccco2)c(C(=O)OCC)c2nc3ccccc3nc21` is 2.48% (inactive); for `COc1ccc(Cn2c(N)c(C(=O)NCc3ccco3)c3nc4ccccc4nc32)cc1OC` it is 2.29% (inactive).
In the case of `COc1ccc(NC(=S)Nc2ccc3nsnc3c2)cc1`, the inhibition was 2.75% (inactive).
The figure for `CN1CCN(C(c2ccccn2)c2cc(Cl)c3cccnc3c2O)CC1` (stereo not given) is 8.11% (inactive); for `Cc1ccc(C(=O)NC2(O)C(=O)c3ccccc3C2=O)cc1C` it is 6.31% (inactive).
On to `O=C(O)c1n[nH]nc1-c1ccccc1`, for which the inhibition is 53.4%.
For the compound `CCOC(=O)c1sc(N2C(=O)C(O)=C(C(=O)c3ccco3)C2c2cccc([N+](=O)[O-])c2)nc1C` (stereo not given), the inhibition is -2.08% (inactive).
With `CCOC(=O)c1cnc(-n2nc(C)cc2C)nc1NC1CCCCC1`, the inhibition was 3.66% (inactive).
Consider `CCOC(=O)c1cnc(-n2nc(C)cc2C)nc1NCCc1ccccc1`, for which the inhibition is 6.83% (inactive).
The figure for `Cc1[nH]n(-c2ccccc2)c(=O)c1C(c1ccc([N+](=O)[O-])cc1)c1c(C)[nH]n(-c2ccccc2)c1=O` is -3.88% (inactive).
The figure for `COc1ccccc1Sc1nc(-c2ccccn2)ncc1OC` is -3.47% (inactive); for `O=c1[nH]c(Nc2ccccc2)cc2ccccc12` it is 4.67% (inactive).
With `COc1cnc(-c2ccccn2)nc1Sc1ccc(C)cc1` the figure was 2.23% (inactive); with `O=C1Nc2ccccc2N2CCCC12` (stereo not given), -3.11% (inactive).
In the case of `Nc1nc(-c2ccccn2)nc(N)c1Cc1ccc(Cl)cc1Cl`, the inhibition is 2.71% (inactive).
Consider `c1ccc(Nc2nc(-c3ccccn3)cs2)cc1`, for which the inhibition is 2.82% (inactive).
`CCOC(=O)c1cnc(-n2cc(C)cn2)nc1NCc1ccc2c(c1)OCO2`: the inhibition is 2.2% (inactive).
With `CCOC(=O)c1sc2nc3c(SCC(=O)O)cc(C(=O)c4cc(F)ccc4O)cn3c(=O)c2c1C` the figure was -0.13% (inactive).
As to `COc1cnc(-c2ccccn2)nc1Sc1ccc(F)cc1`, the inhibition was 5.48% (inactive).
With `O=C(Nc1nc(-c2ccccn2)cs1)C1CC(=O)N(c2ccc3c(c2)OCCO3)C1` (stereo not given) the figure was 2.9% (inactive); with `O=C(O)C1C2CCC(O2)C1C(=O)NC1CCCCC1` (stereo not given), 42.5%.
Regarding `Cc1ccc(C(=O)NNc2cc(N3CCCC3)nc(N3CCCC3)n2)cc1`, the inhibition is 8.52% (inactive).
Regarding `N#Cc1c(-c2ccc(Cl)cc2)cc(-c2cccs2)nc1SCC(=O)O`, the inhibition was -2.49% (inactive).
On to `COc1cnc(-c2ccccn2)nc1Sc1ccccc1Cl`, for which the inhibition was 3.05% (inactive).
The figure for `O=C(O)c1cc(-c2ccc(Cl)c(Cl)c2)n(-c2ccccc2)n1` is -2.01% (inactive).
`COc1cnc(-c2ccccn2)nc1Oc1cccc(Cl)c1`: the inhibition is 0.53% (inactive).
Regarding `N#Cc1c(N2CCCC(O)C2)nc(N)c2c(N)nc3c(c12)CC(=O)N3C12CC3CC(CC(C3)C1)C2` (stereo not given), the inhibition was 2.54% (inactive).
The figure for `O=C1CCCC2=C1C1(O)C(=O)c3ccccc3C1(O)O2` (stereo not given) is 9.53% (inactive); for `COc1ccc2c(Cl)c(C(=O)N/N=C/c3ccc4c(c3)OCO4)sc2c1` it is -2.37% (inactive).
With `Oc1ccccc1/C=N/Nc1cc(N2CCCC2)nc(N2CCCC2)n1` the figure was 7.43% (inactive); with `COc1ccc(CN2C(=O)Cc3c2nc(N)c2c(N)nc(N4CCCCC4)c(C#N)c32)cc1`, 1.97% (inactive).
For `COc1cnc(-c2ccccn2)nc1Sc1ccc(Cl)cc1`, the inhibition is 4.61% (inactive).
The figure for `c1ccc(-c2nccc(-c3ccc(-n4cnc5ccccc54)cc3)n2)nc1` is 6.97% (inactive); for `CCOC(=O)c1cnc(-n2nc(C)cc2C)nc1NC(C)c1ccccc1` (stereo not given) it is 5.83% (inactive).
The figure for `CCCN(CC1CC1)c1nc(N)c2c(N)nc(OC)cc2c1C#N` is 2.08% (inactive); for `COc1cnc(-c2ccccn2)nc1Sc1ccccc1` it is 3.72% (inactive); for `COc1ccc(C(=O)c2nccc3cc(OC)c(OC)cc23)cc1OC` it is 2.42% (inactive).
With `COc1cnc(-c2ccccn2)nc1Oc1cccc(C(F)(F)F)c1` the figure was -5.73% (inactive); with `O=S(=O)(Cc1cc(NCc2ccccc2)nc(-c2ccccn2)n1)c1ccccc1`, 4.59% (inactive).
For the compound `COc1ccc(Sc2nc(-c3ccccn3)ncc2OC)cc1`, the inhibition was 3.64% (inactive).
As to `O=C(O)c1cc(-c2ccc(Cl)c(Cl)c2)n(-c2ccc(F)cc2)n1`, the inhibition is -3.2% (inactive).
Take `COc1cc(Br)c(C(=O)c2nccc3cc(OC)c(OC)cc23)cc1OC`: the inhibition was 1.12% (inactive).
With `CC(C)(CS(=O)(=O)[O-])NC(=O)CC[N+](C)(C)CCO` the figure was 0.86% (inactive); with `CCOC(=O)C1=C(C)OC2(O)c3ccccc3C(=O)C12O` (stereo not given), 11.2% (inactive).
The figure for `CCOC(=O)c1cnc(-n2nc(C)cc2C)nc1NCc1ccccc1` is 3.84% (inactive); for `Clc1ccc(-n2nnnc2-c2cnc(-c3ccccn3)nc2-c2cccs2)cc1` it is -2.47% (inactive); for `CCCCN(CC)c1nc(N)c2c(N)nc(OCC)cc2c1C#N` it is 0.32% (inactive).
With `CCOc1ccc(NC(=S)Nc2ccc3nsnc3c2)cc1` the figure was 3.93% (inactive).
`O=C(NC1(O)C(=O)c2ccccc2C1=O)c1ccccc1`: the inhibition was 4.22% (inactive).
With `Oc1ccc(/C=N/Nc2cc(N3CCOCC3)nc(N3CCOCC3)n2)c(O)c1`, the inhibition is 11.4% (inactive).
The figure for `Nc1cc2nsnc2cc1Br` is 0.76% (inactive); for `COc1ccc(OCCCC(=O)Nc2nc(-c3ccccn3)cs2)cc1` it is 5.93% (inactive).
For the compound `COc1ccc(Cl)cc1C(=O)Nc1cccc(-c2ccc3nncn3n2)c1`, the inhibition is -0.16% (inactive).
The figure for `CC(=O)C(C(C)=O)C1(O)C(=O)c2ccccc2C1=O` is 6.75% (inactive); for `O=C(O)c1cc(-c2ccc(Cl)cc2)n(-c2cccc(Cl)c2)n1` it is -5.16% (inactive).
As to `Oc1cccc(/C=N/Nc2cc(N3CCCC3)nc(N3CCCC3)n2)c1`, the inhibition is 9.26% (inactive).
With `Cc1cc(C)c(S(=O)(=O)/N=C2\C=C(Sc3ncn[nH]3)C(=O)c3ccccc32)cc1C` the figure was 4.08% (inactive).
